# In a melting point compilation (Tetko et al.; mined from patent text by program, amines drawn as free bases though some values may be those of a salt):
row,Compound,melting point [°C]
1,CN1C(=O)[C@H](NC(=O)/C=C/c2cccc(Br)c2)N=C(c2ccccc2)c2ccccc21,221
2,COc1nc(C)nc(NC(=O)NS(=O)(=O)c2c(C)csc2C)n1,189
3,O=C(OCCO)c1ccc([N+](=O)[O-])cc1,77 to 78
4,COc1ccccc1OCCOS(N)(=O)=O,81.5 to 83
5,COc1ccc(-c2c(C)c(NC(=O)CC(C)(C)C)c(C)c3c2OCC3c2ccc(C(C)C)cc2)cc1 (centres undefined),129 to 131
6,CCC(C)(NC(=O)c1cc(Cl)cc(Cl)c1)C(=O)CCl (centres undefined),159 to 161
7,CC(C)(C)c1cc(C(C)(C)C)c(N)cc1N,153 to 154
8,Cn1c(C(F)(F)F)ccc(-c2cc(S(=O)(=O)Cl)c(Cl)cc2F)c1=O,77 to 78
9,Cc1nnc(CCl)n1-c1ccc(Cl)cc1C(=O)c1ccccc1Cl,127 to 130
10,CN1C(=O)CCC(C(=O)O)C1c1ccc2c(c1)OCO2 (centres undefined),231 to 232
11,CCCCCCCCCCCCCCCCC12CCC3=C(CCc4cc(OC)ccc43)C1CCC2=O (centres undefined),54 to 56
12,COc1ccc(Oc2c(Br)cc(C=O)cc2[N+](=O)[O-])cc1Cc1ccc(=O)[nH]n1,188 to 190
13,CCCc1n[nH]c2c(=O)[nH]c(-c3ccccc3OCC)nc12,199 to 201
14,Cc1cc(C)c(Nc2nc(C)ncc2S(=O)(=O)c2ccc(-c3cccnc3)cc2)c(C)c1,190 to 192
15,Clc1cn2c(Cl)cnc2c(Br)n1,100 to 101
16,COC(=O)CCC#Cc1cccc(Br)n1,59 to 61
17,CCCCCCOC(=O)C(O)C1OC(n2cnc3c(N)ncnc32)C(O)C1O (centres undefined),145 to 147
18,CC(C)(C)OC(=O)C(Cl)=CC1C(C(=O)O)C1(C)C (centres undefined),65
19,COC(=O)c1nc2ccc(C=O)cc2cc1C,118 to 121
20,O=C(c1ccc(Oc2ccccc2)cc1)c1ccc(C(=O)c2ccc(Oc3ccccc3)cc2)cc1,212 to 214
21,COC(=O)c1ccc(-c2ccc(-c3cn([C@H]4CN5CCC4CC5)nn3)s2)cc1F,250
22,CCCCCCCCCCCCc1ccsc1-c1ccc2c(c1)c(=O)c1cc3c(cc12)c(=O)c1cc(-c2sccc2CCCCCCCCCCCC)ccc13,152 to 153
23,CC(C)NCCCS(=O)(=O)O,240 to 243
24,CCOC(=O)c1sc(Cl)nc1-c1ccc([N+](=O)[O-])cc1,146 to 148

# The next lines start with the values.
row,melting point [°C],Compound
1,141 to 143,COc1cc2c(c3c1OC(C)(C)C3)C(c1cccc(-c3cncnc3)c1)=NC(C)(C)C2
2,93 to 94,CCCCC(C(O)c1ccc(Cl)cc1)n1cncn1 (centres undefined)
3,148 to 149,Cc1ccc(Cl)cc1N1CN(Cc2ccccc2)CN(C)C1=S
4,146,O=C(c1nc(-c2ccccc2)nc2ccccc12)N1CCC(CCO)CC1
5,208 to 210,CC1=C(c2ccccc2)n2nc(C)c(C(N)=O)c2NC1
6,200 to 202,CCOC(=O)Nc1ccc2nc3ccccc3c(-c3cc(C)ccc3C)c2c1
7,191 to 195,COc1cc2c(cc1C(F)(F)F)N(C(=O)Nc1cc(F)cc(-c3cnccc3C)c1)CC2
8,108,Nc1cccc(-c2cccnc2)n1
9,192 to 193,C[C@@H](n1cnc2ccc(F)cc2c1=O)[C@](O)(Cn1cncn1)c1ccc(F)cc1F
10,224 to 225,CC(=O)Nc1cnc(-c2ccccc2)nc1N
11,150 to 153,COc1cc2c(cc1Cl)CCOC2c1ccc([N+](=O)[O-])cc1 (centres undefined)
12,95 to 96,CC(C)(C)OC(=O)N[C@@H](Cc1ccccc1)[C@@H](O)CO
13,150,CCN(CC)C(=O)[C@H]1C[C@H](C(=O)OC(C)(C)C)N(C(=O)CNC(=O)Nc2cccc(C(=O)O)c2)[C@@H]1c1ccccc1F (racemic)
14,47 to 48,C=C(C)Oc1nc(NCCSCc2ccco2)ncc1Cc1ccc(C)nc1
15,204 to 206,Cn1c(-c2ccc3ccccc3c2)nnc1S(C)(=O)=O
